Earlier results as cited in patent US11826376B2, “Methods of treating heart failure with preserved ejection fraction employing dapagliflozin and compositions comprising the same” (AstraZeneca AB, priority 2018, dated 2023).

Tests used:
human renal SGLT2 = human renal SGLT2 (Homo sapiens, UniProt P31639); conditions: background statement, no data
human renal SGLT2, sequence (P31639 whole entry): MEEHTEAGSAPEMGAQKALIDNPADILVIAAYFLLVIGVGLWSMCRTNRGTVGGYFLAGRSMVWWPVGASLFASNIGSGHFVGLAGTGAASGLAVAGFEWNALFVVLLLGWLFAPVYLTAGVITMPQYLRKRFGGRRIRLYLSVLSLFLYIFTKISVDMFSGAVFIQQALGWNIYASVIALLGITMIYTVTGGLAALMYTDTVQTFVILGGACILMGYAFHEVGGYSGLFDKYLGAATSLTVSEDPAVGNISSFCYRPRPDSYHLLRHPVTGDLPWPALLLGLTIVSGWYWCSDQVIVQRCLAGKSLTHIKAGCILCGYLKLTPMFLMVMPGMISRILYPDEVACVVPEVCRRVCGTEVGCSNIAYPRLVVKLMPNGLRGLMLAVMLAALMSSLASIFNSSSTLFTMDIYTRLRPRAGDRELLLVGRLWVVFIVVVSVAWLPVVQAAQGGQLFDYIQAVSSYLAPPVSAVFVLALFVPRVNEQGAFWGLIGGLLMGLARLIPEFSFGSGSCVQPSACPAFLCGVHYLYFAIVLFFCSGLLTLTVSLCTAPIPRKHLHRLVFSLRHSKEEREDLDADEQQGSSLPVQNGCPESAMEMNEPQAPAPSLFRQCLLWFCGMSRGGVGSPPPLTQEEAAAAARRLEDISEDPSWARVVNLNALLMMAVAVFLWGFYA

inhibitor of human renal SGLT2 (human renal SGLT2): potent, highly selective | risk of inducing hypoglycaemia (background statement): low risk
Structure (SMILES): CCOc1ccc(Cc2cc([C@@H]3O[C@H](CO)[C@@H](O)[C@H](O)[C@H]3O)ccc2Cl)cc1 [Dapagliflozin, dapagliflozin]
albuminuria (Shigiyama et al. 2017): reduce | arterial stiffness (Shigiyama et al. 2017): reduces | blood uric acid (Shigiyama et al. 2017): reduce | systolic blood pressure (Shigiyama et al. 2017): reduce | weight (Shigiyama et al. 2017): reduce | HbA1c (background statement): effectively lowers
